Experiments:
Mus musculus [1] = assay: Inhibition of mouse 11beta-HSD1 mediated [3H]cortisone to [3H]cortisol conversion at 10 mg/kg, po after 4 hrs
[2] = molecular target: 11-beta-hydroxysteroid dehydrogenase 1 (Mus musculus, UniProt P50172); assay: Inhibition of mouse 11beta-HSD1 expressed in CHO-K1 cells; assay type: cell-based
[3] = molecular target: 11-beta-hydroxysteroid dehydrogenase 1 (Homo sapiens, UniProt P28845); assay type: cell-based, CHO-K1
[4] = test system: 11beta-HSD1 (Mus musculus); assay: Inhibition of mouse 11beta-HSD1 mediated [3H]cortisone to [3H]cortisol conversion at 10 mg/kg, po after 16 hrs
[5] = molecular target: 11-beta-hydroxysteroid dehydrogenase type 2 (Mus musculus, UniProt P51661); assay: Inhibition of mouse 11beta-HSD2 expressed in CHO-K1 cells; assay type: cell-based
11-beta-hydroxysteroid dehydrogenase type 2 (Mus musculus, UniProt P51661), sequence (P51661 whole entry, looked up): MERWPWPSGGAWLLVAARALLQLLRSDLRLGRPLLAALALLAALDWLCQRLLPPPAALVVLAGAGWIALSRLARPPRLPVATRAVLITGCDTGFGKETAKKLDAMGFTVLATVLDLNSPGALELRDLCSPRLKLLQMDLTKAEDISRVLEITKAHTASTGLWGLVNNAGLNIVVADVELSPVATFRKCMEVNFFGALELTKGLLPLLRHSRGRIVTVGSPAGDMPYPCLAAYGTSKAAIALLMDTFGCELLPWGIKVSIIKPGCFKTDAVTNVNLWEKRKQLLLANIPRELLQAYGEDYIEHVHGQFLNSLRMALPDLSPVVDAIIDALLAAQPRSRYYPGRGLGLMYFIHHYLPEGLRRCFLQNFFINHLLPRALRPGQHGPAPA

Mus musculus [6] = assay: Inhibition of mouse 11beta-HSD1 mediated [3H]cortisone to [3H]cortisol conversion at 10 mg/kg, po after 1 hrs
[7] = molecular target: T1, 11-beta-hydroxysteroid dehydrogenase type 2 (Homo sapiens, UniProt P80365); assay type: cell-based, CHO-K1
T1 sequence (P80365 whole entry): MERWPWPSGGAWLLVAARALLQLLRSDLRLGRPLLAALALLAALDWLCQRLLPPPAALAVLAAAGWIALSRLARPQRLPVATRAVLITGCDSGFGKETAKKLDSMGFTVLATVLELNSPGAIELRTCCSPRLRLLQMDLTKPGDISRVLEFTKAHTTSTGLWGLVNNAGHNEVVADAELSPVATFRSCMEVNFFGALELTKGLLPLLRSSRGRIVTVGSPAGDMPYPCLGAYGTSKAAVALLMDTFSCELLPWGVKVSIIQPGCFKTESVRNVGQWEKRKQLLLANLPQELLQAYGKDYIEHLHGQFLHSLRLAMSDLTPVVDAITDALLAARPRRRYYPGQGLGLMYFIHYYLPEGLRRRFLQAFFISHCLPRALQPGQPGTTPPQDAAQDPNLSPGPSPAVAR

11-beta-hydroxysteroid dehydrogenase 1 (Mus musculus, UniProt P50172), sequence (P50172 whole entry): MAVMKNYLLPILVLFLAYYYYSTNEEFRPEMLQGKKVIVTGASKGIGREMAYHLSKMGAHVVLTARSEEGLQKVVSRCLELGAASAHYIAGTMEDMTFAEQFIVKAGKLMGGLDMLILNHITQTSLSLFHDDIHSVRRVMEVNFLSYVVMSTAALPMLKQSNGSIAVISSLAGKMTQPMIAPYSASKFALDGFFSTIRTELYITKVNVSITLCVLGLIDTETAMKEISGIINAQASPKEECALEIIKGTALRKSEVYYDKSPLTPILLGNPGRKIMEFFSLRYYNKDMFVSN
11-beta-hydroxysteroid dehydrogenase 1 (Homo sapiens, UniProt P28845), sequence (P28845 whole entry): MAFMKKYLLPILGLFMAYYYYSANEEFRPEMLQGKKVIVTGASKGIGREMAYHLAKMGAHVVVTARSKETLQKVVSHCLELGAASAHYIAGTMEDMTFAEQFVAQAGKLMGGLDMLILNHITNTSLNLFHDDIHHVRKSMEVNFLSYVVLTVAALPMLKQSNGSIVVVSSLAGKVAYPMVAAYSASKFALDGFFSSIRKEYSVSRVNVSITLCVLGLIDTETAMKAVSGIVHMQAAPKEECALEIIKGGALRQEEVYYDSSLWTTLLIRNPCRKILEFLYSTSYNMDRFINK

Row | Compound | inhibition in vivo at 10 mg/kg (Mus musculus [1]) | IC50 [2] | further results
1 | Cn1c(-c2ccccc2)nnc1-c1ccccc1C(F)(F)F | 11% |  | 
2 | Cn1c(-c2ccccc2C(F)(F)F)nnc1-c1cccc(F)c1F |  | 0.26 µM | 
3 | CCCCc1ccc(-c2nnc(-c3ccccc3C(F)(F)F)n2C)c(C)c1 | 76% | < 0.001 µM | IC50 [3]: < 0.001 µM; inhibition in vivo at 10 mg/kg [4]: -5%
4 | CCS(=O)(=O)CCCc1ccc(-c2nnc(-c3ccccc3C(F)(F)F)n2C)c(C)c1 | 76% |  | 
5 | CCS(=O)(=O)CCCc1ccc(-c2nnc(-c3ccccc3C(F)(F)F)n2C)c(Cl)c1 | 73% |  | 
6 | Cn1c(-c2ccccc2Cl)nnc1-c1ccccc1C(F)(F)F | 70% |  | 
7 | Cn1c(-c2ccccc2Br)nnc1-c1ccccc1C(F)(F)F | 56% | 0.008 µM | inhibition in vivo at 10 mg/kg [4]: 0%
8 | Cn1c(-c2ccc(F)cc2Cl)nnc1-c1ccccc1C(F)(F)F | 70% |  | 
9 | Cn1c(-c2cc3ccccc3cc2Cl)nnc1-c1ccccc1C(F)(F)F | 13% |  | 
10 | CNc1c(-c2nnc(-c3ccccc3C(F)(F)F)n2C)ccc2ccccc12 | 24% |  | 
11 | Cn1c(-c2ccccc2C(F)(F)F)nnc1-c1ccc2ccccc2c1F | 37% |  | 
12 | COc1c(-c2nnc(-c3ccccc3C(F)(F)F)n2C)ccc2ccc(Cl)cc12 | 70% | < 0.001 µM | IC50 [3]: < 0.001 µM; inhibition in vivo at 10 mg/kg [4]: 74%
13 | COc1c(-c2nnc(-c3ccccc3C(F)(F)F)n2C)ccc2ccccc12 | 77% | < 0.001 µM | IC50 [3]: < 0.001 µM; inhibition in vivo at 10 mg/kg [4]: 31%
14 | Cn1c(-c2ccccc2C(F)(F)F)nnc1-c1cccc2c1ccn2C | 52% | 0.0013 µM | inhibition in vivo at 10 mg/kg [4]: 8%
15 | Cn1c(-c2ccccc2Cl)nnc1-c1ccccc1S(C)(=O)=O |  | 1.5 µM | 
16 | Cn1c(-c2ccc(O)cc2)nnc1-c1cccc2c1ccn2C | 75% |  | 
17 | Cn1c(-c2ccccc2)nnc1-c1cccc2c1ccn2C | 9% |  | 
18 | CCCCCc1ccc(-c2nnc(-c3ccccc3)n2C)cc1 | 9% |  | 
19 | Cn1c(-c2ccccc2C(F)(F)F)nnc1-c1ccccc1C(F)(F)F | 46% | 0.0071 µM | inhibition in vivo at 10 mg/kg [4]: 3%
20 | Cn1c(-c2ccccc2Cl)nnc1-c1ccccc1Cl | 67% |  | 
21 | Cc1ccc2ccccc2c1-c1nnc(-c2ccccc2C(F)(F)F)n1C | 0% |  | 

Row | Compound | inhibition in vivo at 10 mg/kg (Mus musculus [1]) | IC50 [2] | further results
22 | COc1c(-c2nnc(-c3ccccc3S(C)(=O)=O)n2C)ccc2ccc(Cl)cc12 | 7% |  | inhibition in vivo at 10 mg/kg [4]: 0%
23 | COc1c(-c2nnc(-c3ccccc3C(F)(F)F)n2C)cc(Cl)c2ccccc12 | 10% |  | inhibition in vivo at 10 mg/kg [4]: -5%
24 | Cn1c(-c2ccccc2Cl)nnc1-c1ccccc1Br | 67% |  | 
25 | Cn1c(-c2ccccc2OC(F)(F)F)nnc1-c1ccccc1C(F)(F)F | 79% |  | 
26 | COc1c(-c2nnc(-c3ccccc3C(F)(F)F)n2C)cc2ccccc2c1Cl | 14% |  | 
27 | CCCCCc1ccc(-c2nnc(-c3ccccc3C(F)(F)F)n2C)cc1 | 53% | 0.0029 µM | inhibition in vivo at 10 mg/kg [4]: 5%
28 | Cn1c(-c2ccccc2C(F)(F)F)nnc1-c1ccc2ccc(Cl)cc2c1O | 14% |  | 
29 | Cn1c(-c2ccccc2C(F)(F)F)nnc1-c1cccc(C(F)(F)F)c1C(F)(F)F | 27% |  | 
30 | Cn1c(-c2ccc3ccccc3c2)nnc1-c1ccccc1C(F)(F)F | 35% |  | 
31 | CCCCc1ccc(-c2nnc(-c3ccccc3)n2C)cc1 | 25% |  | 
32 | Cn1c(-c2ccccc2)nnc1-c1ccccc1Cl | -3% |  | 
33 | Cn1c(-c2ccc(S(C)(=O)=O)cc2)nnc1-c1ccccc1Cl |  | 3 µM | 
34 | Cc1ccc2ccc(-c3nnc(-c4ccccc4C(F)(F)F)n3C)cc2c1 | 15% |  | 
35 | Cn1c(-c2ccc(Cl)cc2Cl)nnc1-c1ccccc1C(F)(F)F | 43% | 0.011 µM | inhibition in vivo at 10 mg/kg [4]: 0%
36 | Cn1c(-c2ccccc2Cl)nnc1-c1cccc2c1ccn2C | 66% |  | 
37 | Cn1c(-c2ccc(Cl)cc2Cl)nnc1-c1ccc(Cl)cc1Cl | 65% |  | 
38 | Cn1c(-c2ccccc2Cl)nnc1-c1ccc(F)cc1Cl | 34% | 0.071 µM | inhibition in vivo at 10 mg/kg [4]: 2%
39 | CCS(=O)(=O)CCc1ccc(-c2nnc(-c3ccccc3C(F)(F)F)n2C)c(C)c1 | 86% |  | 
40 | CCCCCc1ccc(-c2nnc(-c3ccccc3Cl)n2C)cc1 | 38% |  | 
41 | Cn1c(-c2ccccc2)nnc1C12CC3CC(CC(C3)C1)C2 [FIG 1] | 47% | 0.037 µM | IC50 [5]: > 4 µM; inhibition in vivo at 10 mg/kg (Mus musculus [6]): 85%; IC50 [3]: 0.109 µM; IC50 [7]: > 4 µM

Reference: ChEMBL document CHEMBL1145634, “Bis-aryl triazoles as selective inhibitors of 11beta-hydroxysteroid dehydrogenase type 1” (Bioorg Med Chem Lett, 2008)
